Results taken from PubChem BioAssay AID2060498 (Molecular Pharmacology Branch, DTP, NCI, 2025).
pIC50: −log10 of the molar value.

Test system: 171881-019-R-J1-PDC tumor spheroids, viability
Assay: Anticancer human tumor 171881-019-R-J1-PDC patient-derived invasive breast carcinoma cell line growth inhibition [GQUAD]
Conditions: spheroids with HUVEC and MSC; for pIC50: curve of first compound; for viability, T/C: stronger effect = lower value
In short: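 Multi-cell-type spheroids of tumor cells with HUVEC and mesenchymal stem cells, treated with drug combinations. Concentrations descend in half-log steps from near clinical Cmax, or from 10 microM where Cmax is unknown; viability read-out.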

[1] = second compound 0.0316 µM, first compound 0.0316 µM
[2] = second compound 0.0316 µM, first compound 0.1 µM
[3] = second compound 0.0316 µM, first compound 0.316 µM
[4] = second compound 0.0316 µM, first compound 1 µM
[5] = second compound 0.0316 µM, first compound 3.16 µM
[6] = second compound 0.0316 µM, first compound 10 µM
[7] = second compound 0.1 µM, first compound 0.0316 µM
[8] = second compound 0.1 µM, first compound 0.1 µM
[9] = second compound 0.1 µM, first compound 0.316 µM
[10] = second compound 0.1 µM, first compound 1 µM
[11] = second compound 0.1 µM, first compound 3.16 µM
[12] = second compound 0.1 µM, first compound 10 µM
[13] = second compound 0.316 µM, first compound 0.0316 µM
[14] = second compound 0.316 µM, first compound 0.1 µM
[15] = second compound 0.316 µM, first compound 0.316 µM
[16] = second compound 0.316 µM, first compound 1 µM
[17] = second compound 0.316 µM, first compound 3.16 µM
[18] = second compound 0.316 µM, first compound 10 µM
[19] = second compound 1 µM, first compound 0.0316 µM
[20] = second compound 1 µM, first compound 0.1 µM
[21] = second compound 1 µM, first compound 0.316 µM
[22] = second compound 1 µM, first compound 1 µM
[23] = second compound 1 µM, first compound 3.16 µM
[24] = second compound 1 µM, first compound 10 µM
[25] = second compound 3.16 µM, first compound 0.0316 µM
[26] = second compound 3.16 µM, first compound 0.1 µM
[27] = second compound 3.16 µM, first compound 0.316 µM
[28] = second compound 3.16 µM, first compound 1 µM
[29] = second compound 3.16 µM, first compound 3.16 µM
[30] = second compound 3.16 µM, first compound 10 µM
[31] = second compound 10 µM, first compound 0.0316 µM
[32] = second compound 10 µM, first compound 0.1 µM
[33] = second compound 10 µM, first compound 0.316 µM
[34] = second compound 10 µM, first compound 1 µM
[35] = second compound 10 µM, first compound 3.16 µM
[36] = second compound 10 µM, first compound 10 µM
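Further: spheroids exposed to compounds for 7 days.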
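Wherever viability, T/C is given: 100% = DMSO vehicle control viability.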

## COc1ccc([C@@H](O)c2cc(-c3ncnc4cc(N5CCOCC5)ccc34)c(F)cc2Cl)nn1 + Cc1cnc(CNC(=O)c2c(=O)c3ccc(N4CCCN(C)CC4)nc3n3c2sc2ccccc23)cn1
Second compound 0.0316 µM
  pIC50: 6.39
Second compound 0.1 µM
  pIC50: 6.57
Second compound 0.316 µM
  pIC50: 6.77
Second compound 1 µM
  pIC50: 6.77
Second compound 3.16 µM
  pIC50: 6.95
Second compound 10 µM
  pIC50: 6.99
[1]
  viability, T/C: 93.2%
[2]
  viability, T/C: 77.1%
[3]
  viability, T/C: 60.5%
[4]
  viability, T/C: 22.4%
[5]
  viability, T/C: 9.13%
[6]
  viability, T/C: 5.12%
[7]
  viability, T/C: 75.6%
[8]
  viability, T/C: 76%
[9]
  viability, T/C: 43.7%
[10]
  viability, T/C: 19.1%
[11]
  viability, T/C: 8.81%
[12]
  viability, T/C: 4.57%
[13]
  viability, T/C: 73.1%
[14]
  viability, T/C: 58%
[15]
  viability, T/C: 40.5%
[16]
  viability, T/C: 17%
[17]
  viability, T/C: 9.34%
[18]
  viability, T/C: 6.36%
[19]
  viability, T/C: 64.9%
[20]
  viability, T/C: 56.8%
[21]
  viability, T/C: 41.8%
[22]
  viability, T/C: 18%
[23]
  viability, T/C: 10.8%
[24]
  viability, T/C: 4.62%
[25]
  viability, T/C: 60.7%
[26]
  viability, T/C: 49.4%
[27]
  viability, T/C: 39.4%
[28]
  viability, T/C: 18.9%
[29]
  viability, T/C: 11.2%
[30]
  viability, T/C: 4.88%
[31]
  viability, T/C: 53.8%
[32]
  viability, T/C: 52.3%
[33]
  viability, T/C: 37.8%
[34]
  viability, T/C: 21.7%
[35]
  viability, T/C: 11.8%
[36]
  viability, T/C: 4.99%

## O=C(NO)c1cnc(N2CCN(S(=O)(=O)c3ccc4ccccc4c3)CC2)nc1 + CN(C)c1ccc(Nc2c3ccc(NC(=O)CCN4CCCC4)cc3nc3cc(NC(=O)CCN4CCCC4)ccc23)cc1
Second compound 0.0316 µM
  pIC50: 6.71
Second compound 0.1 µM
  pIC50: 6.67
Second compound 0.316 µM
  pIC50: > 7.50
Second compound 1 µM
  pIC50: > 7.50
Second compound 3.16 µM
  pIC50: > 7.50
Second compound 10 µM
  pIC50: > 7.50
[1]
  viability, T/C: 101%
[2]
  viability, T/C: 73.7%
[3]
  viability, T/C: 35.6%
[4]
  viability, T/C: 0.61%
[5]
  viability, T/C: 0.11%
[6]
  viability, T/C: 0.11%
[7]
  viability, T/C: 86.7%
[8]
  viability, T/C: 80.1%
[9]
  viability, T/C: 34.8%
[10]
  viability, T/C: 0.74%
[11]
  viability, T/C: 0.22%
[12]
  viability, T/C: 0.38%
[13]
  viability, T/C: 44.2%
[14]
  viability, T/C: 37.8%
[15]
  viability, T/C: 10.6%
[16]
  viability, T/C: 0.25%
[17]
  viability, T/C: 0.08%
[18]
  viability, T/C: 0.21%
[19]
  viability, T/C: 3.24%
[20]
  viability, T/C: 1.83%
[21]
  viability, T/C: 0.75%
[22]
  viability, T/C: 0.1%
[23]
  viability, T/C: 0.06%
[24]
  viability, T/C: 0.31%
[25]
  viability, T/C: 0.23%
[26]
  viability, T/C: 0.4%
[27]
  viability, T/C: 0.28%
[28]
  viability, T/C: 0.06%
[29]
  viability, T/C: 0.08%
[30]
  viability, T/C: 0.1%
[31]
  viability, T/C: 0.07%
[32]
  viability, T/C: 0.12%
[33]
  viability, T/C: 0.38%
[34]
  viability, T/C: 0.34%
[35]
  viability, T/C: 0.29%
[36]
  viability, T/C: 0.15%

## C#Cc1c(F)ccc2cc(O)cc(-c3ncc4c(N5CC6CCC(C5)N6)nc(OCC56CCCN5CC(F)C6)nc4c3F)c12 (stereo not drawn) + Cc1[nH]c2ccc(F)cc2c1-c1nc2c3cccnc3c3ncccc3c2[nH]1
Second compound 0.0316 µM
  pIC50: 6.22
Second compound 0.1 µM
  pIC50: 6.24
Second compound 0.316 µM
  pIC50: 6.55
Second compound 1 µM
  pIC50: 7.35
Second compound 3.16 µM
  pIC50: > 7.50
Second compound 10 µM
  pIC50: > 7.50
[1]
  viability, T/C: 103%
[2]
  viability, T/C: 69.3%
[3]
  viability, T/C: 60.6%
[4]
  viability, T/C: 42.9%
[5]
  viability, T/C: 24.6%
[6]
  viability, T/C: 7.54%
[7]
  viability, T/C: 92.8%
[8]
  viability, T/C: 75.1%
[9]
  viability, T/C: 59%
[10]
  viability, T/C: 41.2%
[11]
  viability, T/C: 25.1%
[12]
  viability, T/C: 6.93%
[13]
  viability, T/C: 82.7%
[14]
  viability, T/C: 62.3%
[15]
  viability, T/C: 46.7%
[16]
  viability, T/C: 31%
[17]
  viability, T/C: 30%
[18]
  viability, T/C: 4.2%
[19]
  viability, T/C: 55.6%
[20]
  viability, T/C: 39.8%
[21]
  viability, T/C: 36.8%
[22]
  viability, T/C: 23.4%
[23]
  viability, T/C: 22.9%
[24]
  viability, T/C: 0.29%
[25]
  viability, T/C: 6.7%
[26]
  viability, T/C: 3.48%
[27]
  viability, T/C: 3.47%
[28]
  viability, T/C: 2.21%
[29]
  viability, T/C: 1.89%
[30]
  viability, T/C: 0.17%
[31]
  viability, T/C: 23.8%
[32]
  viability, T/C: 27.4%
[33]
  viability, T/C: 15.8%
[34]
  viability, T/C: 15%
[35]
  viability, T/C: 6.1%
[36]
  viability, T/C: 0.16%

## CC(C)n1c(=O)n(C)c2cnc3cc(F)c(-c4ccc(OCCCN5CCCCC5)nc4)cc3c21 + CN(C)c1ccc(Nc2c3ccc(NC(=O)CCN4CCCC4)cc3nc3cc(NC(=O)CCN4CCCC4)ccc23)cc1
Second compound 0.0316 µM
  pIC50: 5.62
Second compound 0.1 µM
  pIC50: 5.66
Second compound 0.316 µM
  pIC50: 6.17
Second compound 1 µM
  pIC50: > 7.50
Second compound 3.16 µM
  pIC50: > 7.50
Second compound 10 µM
  pIC50: > 7.50
[1]
  viability, T/C: 95.7%
[2]
  viability, T/C: 100%
[3]
  viability, T/C: 88.1%
[4]
  viability, T/C: 80.4%
[5]
  viability, T/C: 40.4%
[6]
  viability, T/C: 12.9%
[7]
  viability, T/C: 93%
[8]
  viability, T/C: 108%
[9]
  viability, T/C: 92%
[10]
  viability, T/C: 84.9%
[11]
  viability, T/C: 34.3%
[12]
  viability, T/C: 9.41%
[13]
  viability, T/C: 82.2%
[14]
  viability, T/C: 79.6%
[15]
  viability, T/C: 69.3%
[16]
  viability, T/C: 37.6%
[17]
  viability, T/C: 20.3%
[18]
  viability, T/C: 4.16%
[19]
  viability, T/C: 18.5%
[20]
  viability, T/C: 16.8%
[21]
  viability, T/C: 19.4%
[22]
  viability, T/C: 8.58%
[23]
  viability, T/C: 6.36%
[24]
  viability, T/C: 1.3%
[25]
  viability, T/C: 1.45%
[26]
  viability, T/C: 1.78%
[27]
  viability, T/C: 1.74%
[28]
  viability, T/C: 1.06%
[29]
  viability, T/C: 1.03%
[30]
  viability, T/C: 0.15%
[31]
  viability, T/C: 0.27%
[32]
  viability, T/C: 0.4%
[33]
  viability, T/C: 0.34%
[34]
  viability, T/C: 0.37%
[35]
  viability, T/C: 0.25%
[36]
  viability, T/C: 0.28%
